Results reported in US6906205B2, “Spiro and dispiro 1,2,4-trioxolane antimalarials” (Medicines for Malaria Venture MMV, priority 2002, dated 2005).
In brackets after ≈: the same amount, converted by molar mass.

Tested on: ANKA strain of P. berghei
Assay: single dose STI in vivo screen in infected mice
Set-up: species or system Plasmodium berghei
Details: percent reduction in parasitemia day 3 post-infection; single 3 mg/kg po in SSV
Experimental: In the single dose STI in vivo screen, Moro SPF or NMRI mice infected with the ANKA strain of P. berghei (groups of 3-5 mice) were treated on day one post-infection with trioxolanes dissolved or suspended in 3% ethanol and 7% Tween 80. […] SSV consists of 0.5% w/v CMC, 0.5% v/v benzyl alcohol, 0.4% v/v Tween 80, and 0.9% w/v sodium chloride in water. Antimalarial activity was measured by percent reduction in parasitemia on day three post-infection and survival times compared to an untreated control group. Survival to day 30 post-infection is considered to be a cure. […] Other factors influencing antimalarial activity include the stability of carbon radicals formed by β-scission subsequent to the initial electron transfer to the peroxide bond and the influence of steric effects remote from the peroxide bond on the interactions between carbon radicals and potential drug targets.

SMILES | Activity (%) 3 mg/kg SSV po
O=C(NC[C@H]1CC[C@]2(CC1)OO[C@]1(O2)C2CC3CC(C2)CC1C3)c1cccnc1 [OZ273] | 64%
Nc1nccnc1C(=O)NC[C@H]1CC[C@]2(CC1)OO[C@]1(O2)C2CC3CC(C2)CC1C3 [OZ330] | 82%
O=CNCC(=O)NC[C@H]1CC[C@]2(CC1)OO[C@]1(O2)C2CC3CC(C2)CC1C3 [OZ322] | 61%
c1cnc(OC[C@H]2CC[C@]3(CC2)OO[C@]2(O3)C3CC4CC(C3)CC2C4)nc1 [OZ325] | 30%
NC(=O)c1ccc(NC[C@H]2CC[C@]3(CC2)OOC2(O3)C3CC4CC(C3)CC2C4)cc1 (some centres unmarked) [OZ286] | 60%
NC(=O)c1cn(C[C@H]2CC[C@]3(CC2)OO[C@]2(O3)C3CC4CC(C3)CC2C4)cn1 [OZ320] | 92%
NCCNC(=O)C[C@H]1CC[C@]2(CC1)OO[C@]1(O2)C2CC3CC(C2)CC1C3 [OZ305] | 96%
CCOC(=O)CCNCC1CCC2(CC1)OOC1(O2)C2CC3CC(C2)CC1C3.Cc1ccc(S(=O)(=O)O)cc1 (centres unmarked) [OZ318] | 29%
O=C(NC[C@H]1CC[C@]2(CC1)OO[C@]1(O2)C2CC3CC(C2)CC1C3)c1ccccn1 [OZ304] | 61%
N[C@H]1CCN(C(=O)C[C@H]2CC[C@]3(CC2)OO[C@]2(O3)C3CC4CC(C3)CC2C4)C1 [OZ338] | 99.80%
NC(=O)[C@@H]1CCCN1C[C@H]1CC[C@]2(CC1)OO[C@]1(O2)C2CC3CC(C2)CC1C3 [OZ327] | 72%
N[C@H]1CC[C@]2(CC1)OO[C@]1(O2)C2CC3CC(C2)CC1C3 [OZ362] | 58%
O=C(C[C@H]1CC[C@]2(CC1)OO[C@]1(O2)C2CC3CC(C2)CC1C3)N1CCN(c2ncccn2)CC1 [OZ314] | 11%

Same assay, conditions: percent reduction in parasitemia day 3 post-infection; single 10 mg/kg po in 3% ethanol and 7% Tween 80; mice

SMILES | Activity (%) po
CCOC(=O)c1ccc([C@H]2CC[C@]3(CC2)OOC2(O3)C3CC4CC(C3)CC2C4)cc1 (some centres unmarked) [OZ164] | 11%
O=C(N1CCOCC1)N1CCC2(CC1)OOC1(O2)C2CC3CC(C2)CC1C3 (centres unmarked) [OZ188] | 93%
CN(C)C(=O)N1CCC2(CC1)OOC1(O2)C2CC3CC(C2)CC1C3 (centres unmarked) [OZ133] | 94%
O=C1c2ccccc2C(=O)N1[C@H]1CC[C@]2(CC1)OOC1(O2)C2CC3CC(C2)CC1C3 (some centres unmarked) [OZ136] | 0/0/0%

Same assay, conditions: percent reduction in parasitemia day 3 post-infection; single 10 mg/kg po in SSV

SMILES | Activity (%) 10 mg/kg SSV po
Nc1nccnc1C(=O)NC[C@H]1CC[C@]2(CC1)OO[C@]1(O2)C2CC3CC(C2)CC1C3 [OZ330] | 99.96%
O=CNCC(=O)NC[C@H]1CC[C@]2(CC1)OO[C@]1(O2)C2CC3CC(C2)CC1C3 [OZ322] | 98%
c1cnc(OC[C@H]2CC[C@]3(CC2)OO[C@]2(O3)C3CC4CC(C3)CC2C4)nc1 [OZ325] | 99.43%
NC(=O)c1cn(C[C@H]2CC[C@]3(CC2)OO[C@]2(O3)C3CC4CC(C3)CC2C4)cn1 [OZ320] | 99.76%
NCCNC(=O)C[C@H]1CC[C@]2(CC1)OO[C@]1(O2)C2CC3CC(C2)CC1C3 [OZ305] | 99.93%
CCOC(=O)CCNCC1CCC2(CC1)OOC1(O2)C2CC3CC(C2)CC1C3.Cc1ccc(S(=O)(=O)O)cc1 (centres unmarked) [OZ318] | 88%
O=C(NC[C@H]1CC[C@]2(CC1)OO[C@]1(O2)C2CC3CC(C2)CC1C3)c1ccccn1 [OZ304] | 98%
N[C@H]1CCN(C(=O)C[C@H]2CC[C@]3(CC2)OO[C@]2(O3)C3CC4CC(C3)CC2C4)C1 [OZ338] | 99.93%
NC(=O)[C@@H]1CCCN1C[C@H]1CC[C@]2(CC1)OO[C@]1(O2)C2CC3CC(C2)CC1C3 [OZ327] | 97%
N[C@H]1CC[C@]2(CC1)OO[C@]1(O2)C2CC3CC(C2)CC1C3 [OZ362] | 98%
O=C(C[C@H]1CC[C@]2(CC1)OO[C@]1(O2)C2CC3CC(C2)CC1C3)N1CCN(c2ncccn2)CC1 [OZ314] | 13%

Same assay, conditions: percent reduction in parasitemia day 3 post-infection; single 10 mg/kg sc in 3% ethanol and 7% Tween 80; mice

SMILES | Activity (%) sc
CCOC(=O)c1ccc([C@H]2CC[C@]3(CC2)OOC2(O3)C3CC4CC(C3)CC2C4)cc1 (some centres unmarked) [OZ164] | 7%
O=C(N1CCOCC1)N1CCC2(CC1)OOC1(O2)C2CC3CC(C2)CC1C3 (centres unmarked) [OZ188] | 99.87%
CN(C)C(=O)N1CCC2(CC1)OOC1(O2)C2CC3CC(C2)CC1C3 (centres unmarked) [OZ133] | 72%
O=C1c2ccccc2C(=O)N1[C@H]1CC[C@]2(CC1)OOC1(O2)C2CC3CC(C2)CC1C3 (some centres unmarked) [OZ136] | 0/0/0%

Same assay, conditions: percent reduction in parasitemia day 3 post-infection; single po dose in standard suspending vehicle (SSV); mice

SMILES | Activity (%) SSVpo
CCOC(=O)c1ccc([C@H]2CC[C@]3(CC2)OOC2(O3)C3CC4CC(C3)CC2C4)cc1 (some centres unmarked) [OZ164] | 0%
O=C(N1CCOCC1)N1CCC2(CC1)OOC1(O2)C2CC3CC(C2)CC1C3 (centres unmarked) [OZ188] | 98%
CN(C)C(=O)N1CCC2(CC1)OOC1(O2)C2CC3CC(C2)CC1C3 (centres unmarked) [OZ133] | 97%
O=C1c2ccccc2C(=O)N1[C@H]1CC[C@]2(CC1)OOC1(O2)C2CC3CC(C2)CC1C3 (some centres unmarked) [OZ136] | 0/0/0%

Same assay, conditions: single 3 mg/kg po in SSV

SMILES | Survival (days) 3 mg/kg SSV po
NC(=O)c1cn(C[C@H]2CC[C@]3(CC2)OO[C@]2(O3)C3CC4CC(C3)CC2C4)cn1 [OZ320] | 11.8 days
N[C@H]1CC[C@]2(CC1)OO[C@]1(O2)C2CC3CC(C2)CC1C3 [OZ362] | 7.0 days

Same assay, conditions: single 10 mg/kg po in 3% ethanol and 7% Tween 80; untreated control 5.6 ± 0.3

SMILES | Survival (days) po
O=C(N1CCOCC1)N1CCC2(CC1)OOC1(O2)C2CC3CC(C2)CC1C3 (centres unmarked) [OZ188] | 8.7 days
CN(C)C(=O)N1CCC2(CC1)OOC1(O2)C2CC3CC(C2)CC1C3 (centres unmarked) [OZ133] | 7.0 days
O=C1c2ccccc2C(=O)N1[C@H]1CC[C@]2(CC1)OOC1(O2)C2CC3CC(C2)CC1C3 (some centres unmarked) [OZ136] | 6.0/6.0/6.0 days

Same assay, conditions: single 10 mg/kg po in SSV

SMILES | Survival (days) 10 mg/kg SSV po
O=CNCC(=O)NC[C@H]1CC[C@]2(CC1)OO[C@]1(O2)C2CC3CC(C2)CC1C3 [OZ322] | 10.0 days
c1cnc(OC[C@H]2CC[C@]3(CC2)OO[C@]2(O3)C3CC4CC(C3)CC2C4)nc1 [OZ325] | 8.8 days
NC(=O)c1ccc(NC[C@H]2CC[C@]3(CC2)OOC2(O3)C3CC4CC(C3)CC2C4)cc1 (some centres unmarked) [OZ286] | 8.7 days
NC(=O)c1cn(C[C@H]2CC[C@]3(CC2)OO[C@]2(O3)C3CC4CC(C3)CC2C4)cn1 [OZ320] | 10.4 days
NCCNC(=O)C[C@H]1CC[C@]2(CC1)OO[C@]1(O2)C2CC3CC(C2)CC1C3 [OZ305] | 9.2 days
O=C(NC[C@H]1CC[C@]2(CC1)OO[C@]1(O2)C2CC3CC(C2)CC1C3)c1ccccn1 [OZ304] | 8.2 days
N[C@H]1CCN(C(=O)C[C@H]2CC[C@]3(CC2)OO[C@]2(O3)C3CC4CC(C3)CC2C4)C1 [OZ338] | 9.8 days
NC(=O)[C@@H]1CCCN1C[C@H]1CC[C@]2(CC1)OO[C@]1(O2)C2CC3CC(C2)CC1C3 [OZ327] | 9.8 days
N[C@H]1CC[C@]2(CC1)OO[C@]1(O2)C2CC3CC(C2)CC1C3 [OZ362] | 9.8 days

Same assay, conditions: single 10 mg/kg sc in 3% ethanol and 7% Tween 80; untreated control 5.6 ± 0.3

SMILES | Survival (days) sc
O=C(N1CCOCC1)N1CCC2(CC1)OOC1(O2)C2CC3CC(C2)CC1C3 (centres unmarked) [OZ188] | 9.0 days
CN(C)C(=O)N1CCC2(CC1)OOC1(O2)C2CC3CC(C2)CC1C3 (centres unmarked) [OZ133] | 7.0 days
O=C1c2ccccc2C(=O)N1[C@H]1CC[C@]2(CC1)OOC1(O2)C2CC3CC(C2)CC1C3 (some centres unmarked) [OZ136] | 6.0/6.0/6.0 days

Same assay, conditions: single po dose in SSV; untreated control 5.6 ± 0.3

SMILES | Survival (days) SSVpo
CCOC(=O)c1ccc([C@H]2CC[C@]3(CC2)OOC2(O3)C3CC4CC(C3)CC2C4)cc1 (some centres unmarked) [OZ164] | 5.7 days
O=C(N1CCOCC1)N1CCC2(CC1)OOC1(O2)C2CC3CC(C2)CC1C3 (centres unmarked) [OZ188] | 10.0 days
CN(C)C(=O)N1CCC2(CC1)OOC1(O2)C2CC3CC(C2)CC1C3 (centres unmarked) [OZ133] | 7.3 days
O=C1c2ccccc2C(=O)N1[C@H]1CC[C@]2(CC1)OOC1(O2)C2CC3CC(C2)CC1C3 (some centres unmarked) [OZ136] | 6.0/6.0/6.0 days

Tested on: P. falciparum K1 strain (Thailand resistant to chloroquine)
Assay: semiautomated microdilution assay, [3H]-hypoxanthine incorporation, K1 strain
Type: cell-based, Plasmodium falciparum
Details: K1 strain, 72 h incubation
Experimental: Various OZ compounds were tested by the semiautomated microdilution assay against intraerythrocytic forms of Plasmodium falciparum derived from asynchronous stock cultures.
Fifty percent inhibitory concentration (IC50) were estimated by Logit regression analysis.

SMILES | IC50 (ng/ml) K1
NC(=O)N1CCC2(CC1)OOC1(O2)C2CC3CC(C2)CC1C3 (centres unmarked) [OZ199] | 0.69 ng/mL (≈ 2.24 nM)
O=C(NC[C@H]1CC[C@]2(CC1)OO[C@]1(O2)C2CC3CC(C2)CC1C3)c1cccnc1 [OZ273] | 0.97 ng/mL (≈ 2.43 nM)
Nc1nccnc1C(=O)NC[C@H]1CC[C@]2(CC1)OO[C@]1(O2)C2CC3CC(C2)CC1C3 [OZ330] | 0.55 ng/mL (≈ 1.33 nM)
O=CNCC(=O)NC[C@H]1CC[C@]2(CC1)OO[C@]1(O2)C2CC3CC(C2)CC1C3 [OZ322] | 0.90 ng/mL (≈ 2.38 nM)
c1cnc(OC[C@H]2CC[C@]3(CC2)OO[C@]2(O3)C3CC4CC(C3)CC2C4)nc1 [OZ325] | 0.62 ng/mL (≈ 1.66 nM)
NC(=O)c1ccc(NC[C@H]2CC[C@]3(CC2)OOC2(O3)C3CC4CC(C3)CC2C4)cc1 (some centres unmarked) [OZ286] | 0.94 ng/mL (≈ 2.28 nM)
NC(=O)c1cn(C[C@H]2CC[C@]3(CC2)OO[C@]2(O3)C3CC4CC(C3)CC2C4)cn1 [OZ320] | 0.68 ng/mL (≈ 1.75 nM)
NCCNC(=O)C[C@H]1CC[C@]2(CC1)OO[C@]1(O2)C2CC3CC(C2)CC1C3 [OZ305] | 1.8 ng/mL (≈ 4.94 nM)
CN(C)C(=O)N1CCC2(CC1)OOC1(O2)C2CC3CC(C2)CC1C3 (centres unmarked) [OZ133] | 0.70 ng/mL (≈ 2.08 nM)
NC(=O)[C@@H]1CCCN1C[C@H]1CC[C@]2(CC1)OO[C@]1(O2)C2CC3CC(C2)CC1C3 [OZ327] | 0.85 ng/mL (≈ 2.18 nM)

Same assay, conditions: Plasmodium falciparum; K1 strain, 72 h incubation; read-out: IC50 (ng/ml) K1

SMILES | IC50
CCOC(=O)c1ccc([C@H]2CC[C@]3(CC2)OOC2(O3)C3CC4CC(C3)CC2C4)cc1 (some centres unmarked) [OZ164] | 59 ng/mL (≈ 143 nM)
